Five compounds from PMC4095797 (Proteins, 2013) can be followed below.

Holding throughout (assay type): binding
Assay [1] has as its target T1, RPD1520 (Rhodopseudomonas pseudopalustris, UniProt A0A1H8UI63). The experiment in a line: intrinsic tryptophan fluorescence quenching. Conditions: excitation 275 nm; single-site fit; unit of KD printed as M^-1 (M meant).
A further assay addresses BLR7848 (Bradyrhizobium diazoefficiens, UniProt Q89CE9). As to the kind of experiment: fluorescence thermal shift. The note with it: 10 μM protein, 1000 μM ligand; HEPES pH 7.5.
The target in the next assay is RPD1889 (Rhodopseudomonas palustris, UniProt Q139W5). As to the kind of experiment: fluorescence thermal shift. The note with it: 10 μM protein, 1000 μM ligand; HEPES pH 7.5; pre-bound ligand present.
The next assay concerns the target RPA1789 (Rhodopseudomonas palustris, UniProt Q6N8W4). As to the kind of experiment: X-ray crystal structure. The note with it: co-crystallisation; SeMet protein; 1.60 Å.
The next assay has as its target RPB3575 (Rhodopseudomonas palustris, UniProt Q2IU40). As to the kind of experiment: X-ray crystal structure. The note with it: co-crystallisation; SeMet protein; 1.70 Å.
In assay [2] the target is T1, RPD1520. As to the kind of experiment: fluorescence thermal shift. The note with it: 10 μM protein, 1000 μM ligand; HEPES pH 7.5.

`O=C(O)C(=O)c1ccccc1` [BZF, benzoylformic acid]: the KD on RPD1520 [1] is reported as 1.50 × 10^-4 ± 0.11 M^-1. For `O=C(O)/C=C/c1ccc(O)c(O)c1` [CAF, caffeic acid], the dTm result is on record as “(p- coumaric acid, caffeic acid) produce the maximal observed thermal shifts” at BLR7848 and “(p- coumaric acid, caffeic acid) produce the maximal observed thermal shifts” on RPD1889. For `O=C(O)/C=C/c1ccc(O)cc1` [COU, p-coumaric acid], the dTm result is recorded as “(p- coumaric acid, caffeic acid) produce the maximal observed thermal shifts” on BLR7848 and “(p- coumaric acid, caffeic acid) produce the maximal observed thermal shifts” on RPD1889. For the same compound, the X-ray crystal structure entry was “Structures for RPA1789 and RPB3575 proteins in complex with p-coumaric acid (COU, 4-hydroxycinammic acid)” at RPA1789; “The structure of RPB3575 with p-coumaric acid (COU)” on RPB3575. Consider `O=C(O)Cc1ccccc1` [PAA, phenylacetic acid], for which, at RPD1520 [2], the dTm result is on record as “large Tm shifts when phenylacetic acid or hydrocinnamic acid were included”.

As to `O=C(O)CCc1ccccc1` [hydrocinnamic acid], the dTm entry at RPD1520 [2] is reported as “large Tm shifts when phenylacetic acid or hydrocinnamic acid were included”.
